Conditions: 101.33 kPa, Liquid; for electrical conductivity: Alternating current cell with electrodes; for mass density: Vibrating tube method

CCCCn1cc[n+](C)c1.O=S(=O)([N-]S(=O)(=O)C(F)(F)C(F)(F)F)C(F)(F)C(F)(F)F [1-butyl-3-methylimidazolium bis(perfluoroethylsulfonyl)imide]
Conditions	electrical conductivity [S/m]	mass density [kg/m3]	viscosity [mPa·s]
273.15 K	0.0324	1539.6	579.1
278.15 K	0.046	1534	398.8
283.15 K	0.0634	1528.5	282.2
288.15 K	0.0853	1523.88	205.3
293.15 K	0.112	1518.55	153.3
298.15 K	0.145	1513.25	115.9
303.15 K	0.183	1507.96	89.72
308.15 K	0.227	–	–
313.15 K	0.278	1497.47	56.57
318.15 K	0.336	–	–
323.15 K	0.4	1487.06	37.86
328.15 K	0.475	–	–
333.15 K	0.549	1476.73	26.63
338.15 K	0.638	–	–
343.15 K	0.724	1466.47	19.48
348.15 K	0.831	–	–
353.15 K	0.928	1456.27	14.74
358.15 K	1.05	–	–
363.15 K	–	1446.14	11.48
368.15 K	1.29	–	–
378.15 K	1.56	–	–
388.15 K	1.86	–	–
398.15 K	2.16	–	–
408.15 K	2.49	–	–
418.15 K	2.83	–	–
428.15 K	3.19	–	–
438.15 K	3.56	–	–
448.15 K	3.94	–	–
458.15 K	4.33	–	–
468.15 K	4.72	–	–

CCCCCCCCn1cc[n+](C)c1.O=S(=O)([N-]S(=O)(=O)C(F)(F)F)C(F)(F)F
Conditions	electrical conductivity [S/m]
273.15 K	0.0308
278.15 K	0.0432
283.15 K	0.059
288.15 K	0.0784
293.15 K	0.102
298.15 K	0.131
303.15 K	0.164
308.15 K	0.204
313.15 K	0.246
318.15 K	0.298
323.15 K	0.351
328.15 K	0.415
333.15 K	0.478
338.15 K	0.556
343.15 K	0.627
348.15 K	0.72
353.15 K	0.801
358.15 K	0.906
368.15 K	1.11
378.15 K	1.34
388.15 K	1.59
398.15 K	1.85
408.15 K	2.13
418.15 K	2.42
428.15 K	2.72
438.15 K	3.04
448.15 K	3.36
458.15 K	3.69
468.15 K	4.03

CCCCCC[n+]1ccn(C)c1.O=S(=O)([N-]S(=O)(=O)C(F)(F)F)C(F)(F)F
Conditions	electrical conductivity [S/m]	mass density [kg/m3]	viscosity [mPa·s]
278.15 K	0.0776	1391.02	210.6
283.15 K	–	1386.34	–
288.15 K	0.136	1381.65	116.7
293.15 K	–	1376.98	–
298.15 K	0.218	1372.35	70.51
303.15 K	–	1367.74	–
308.15 K	0.328	1363.15	45.51
313.15 K	–	1358.58	–
318.15 K	0.466	1354.02	31.03
323.15 K	–	1349.49	–
328.15 K	0.634	1344.97	22.14
333.15 K	–	1340.47	–
338.15 K	0.83	1335.98	16.4
343.15 K	–	1331.51	–
348.15 K	1.05	1327.05	12.59
353.15 K	–	1322.61	–
358.15 K	1.3	1318.18	9.957
363.15 K	–	1313.77	–
368.15 K	1.58	–	8.066
378.15 K	1.88	–	6.673
388.15 K	2.19	–	5.623
398.15 K	2.53	–	4.819
408.15 K	2.88	–	4.19
418.15 K	3.24	–	–
428.15 K	3.62	–	–
438.15 K	4.01	–	–
448.15 K	4.41	–	–
458.15 K	4.82	–	–
468.15 K	5.24	–	–

CC(=O)[O-].CCn1cc[n+](C)c1 [1-ethyl-3-methylimidazolium acetate]
Conditions	electrical conductivity [S/m]	mass density [kg/m3]	viscosity [mPa·s]
278.15 K	–	1111.95	701.2
288.15 K	–	1105.67	288
298.15 K	0.278	1099.44	141.1
308.15 K	0.471	1093.24	78.27
318.15 K	0.733	1087.13	47.69
328.15 K	1.07	1081.09	31.26
338.15 K	1.48	1075.11	21.77
348.15 K	1.96	1069.17	16.01
358.15 K	2.5	1063.3	12.19
368.15 K	3.11	–	9.558
378.15 K	3.8	–	7.71
388.15 K	4.53	–	6.362
398.15 K	5.31	–	5.356
408.15 K	6.13	–	4.589
418.15 K	6.92	–	–

From the NIST ThermoML archive (doi:10.1021/acs.jced.5b00285)
